How the values were obtained:
[1] = molecular target: T1, Nuclear receptor ROR-gamma (Homo sapiens, UniProt P51449); assay: Inhibition of Gal4-fused RORgamma LBD (unknown origin) expressed in HEK293T cells incubated for 48 hrs by luciferase based assay; format: cell-based
T1 sequence (P51449 whole entry): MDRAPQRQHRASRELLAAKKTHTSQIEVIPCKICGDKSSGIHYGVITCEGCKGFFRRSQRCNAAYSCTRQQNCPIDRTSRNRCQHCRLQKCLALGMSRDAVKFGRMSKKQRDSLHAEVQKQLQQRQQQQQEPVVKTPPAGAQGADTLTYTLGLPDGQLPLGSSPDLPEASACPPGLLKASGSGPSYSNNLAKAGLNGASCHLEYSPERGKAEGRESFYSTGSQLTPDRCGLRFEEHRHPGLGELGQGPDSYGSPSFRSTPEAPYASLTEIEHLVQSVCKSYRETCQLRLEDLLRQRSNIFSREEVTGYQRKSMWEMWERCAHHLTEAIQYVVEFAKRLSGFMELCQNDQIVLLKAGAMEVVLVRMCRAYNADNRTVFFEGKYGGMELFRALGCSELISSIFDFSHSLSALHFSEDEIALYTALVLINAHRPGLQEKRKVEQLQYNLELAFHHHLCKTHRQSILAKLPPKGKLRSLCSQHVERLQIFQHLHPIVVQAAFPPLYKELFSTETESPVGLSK

[2] = Metabolic stability in mouse liver microsomes assessed as half life at 0.1 uM preincubated for 10 mins followed by NADPH addition and measured upto 60 mins by LC-MS/MS analysis; format: ADME, Microsome; details: time < 70 min
LNCaP = assay: Antiproliferative activity against human LNCaP cells incubated for 4 days by CCK8 assay; details: 96 h
LNCaP C4-2B = assay: Antiproliferative activity against human LNCaP C4-2B cells incubated for 4 days by CCK8 assay; details: 96 h
CWR22R = assay: Antiproliferative activity against human 22Rv1 cells incubated for 4 days by CCK8 assay; details: 22Rv1, 96 h

Compound | IC50 [1] [nM] | half-life at 0.1 µM [2] [min] | IC50 (LNCaP) [nM] | IC50 (LNCaP C4-2B) [nM] | IC50 (CWR22R) [nM]
C=CC(=O)Nc1ccccc1-c1ccc(NC(=O)Cc2ccc(S(=O)(=O)CC)cc2)cc1C | – | 10 | 920 | 990 | 2250
C=CC(=O)Nc1ccccc1-c1ccc(NC(=O)Cc2ccc(C#N)cc2)cc1C | 2320 | – | – | – | –
C=CC(=O)Nc1ccccc1-c1ccc(NC(=O)c2ccc(OC)nc2)cc1C | 4640 | – | – | – | –
C=CC(=O)Nc1ccccc1-c1ccc(NS(=O)(=O)Cc2ccc([N+](=O)[O-])cc2)cc1C | 6610 | – | – | – | –

The remaining compounds from weak to strong by IC50 [1], led by results:

IC50 [1] [nM] | half-life at 0.1 µM [2] [min] | IC50 (LNCaP) [nM] | IC50 (LNCaP C4-2B) [nM] | Compound | IC50 (CWR22R) [nM]
2170 | – | 1770 | 1100 | C=CC(=O)Nc1ccccc1-c1ccc(NC(=O)Cc2ccc(S(=O)(=O)CC)cc2)cc1C(F)(F)F | 2560
1120 | – | – | – | C=C(C)C(=O)Nc1ccccc1-c1ccc(NC(=O)Cc2ccc(S(=O)(=O)CC)cc2)cc1C | –

— ChEMBL document CHEMBL5537185, “Discovery of the First-in-Class RORγ Covalent Inhibitors for Treatment of Castration-Resistant Prostate Cancer” (J Med Chem, 2024)
